# Experimental data taken from patent US5385884A, “Lipopeptide derivatives” (Merck & Co. Inc., priority 1991, dated 1995).
# Columns and labels:
# [1] = test system: C. albicans; assay: Minimum fungicidal concentration, microbroth dilution assay in YNBD; type: cell-based
# Procedure: The minimum inhibitory concentrations (MICs) were recorded as the lowest concentrations of drug showing no visible growth.
# After recording the MIC, the plates were shaken to resuspend the cells. […] The MFC is defined as the lowest concentration of drug showing no growth or less than 4 colonies per spot.
# [2] = test system: Pneumocystis carinii; assay: Pneumocystis carinii pneumonia in immunosuppressed rats; type: in vivo, Sprague-Dawley rats; conditions: intraperitoneally (I.P.) twice daily for four days
# Procedure: In a representative study, the effectiveness of Compound A-la was determined. Sprague-Dawley rats (weighing approximately 250 grams) were immunosuppressed with dexasone in the drinking water (2.0 mg/L) and maintained on a low protein diet for five weeks to induce the development of pneumocystis pneumonia from a latent infection. […] Six rats (weighing approximately 150 grams) were injected twice daily for four days intravenously (I.V.) via the tail vein with Compound A-la in 0.25 ml of vehicle (distilled water). A vehicle control was also carried out. All animals continued to receive dexasone in the drinking water and low protein diet during the treatment period. At the completion of the treatment, all animals were sacrificed, the lungs were removed and processed, and the extent of disease determined by microscopic analysis of stained slides.
# In a similar experiment, except that the rats were injected intraperitoneally (I.P.) twice daily for four days, the animals were sacrificed, the lungs removed and processed, and the extent of disease determined by microscopic analysis of stained slides.
substance,measurement,setting,value
"1-[4-hydroxy-N2-(10,12-dimethyl-1-oxotetradecyl)-ornithine]-4-[3-hydroxy-4' -O-phosphoryl-homotyrosine]-5-[3-hydroxyglutamine]-6-[3-hydroxyproline]echi nocandin B disodium salt [Compound A-2a]",Minimum Fungicidal Concentration,[1]; C. albicans MY 1028,2 µg/mL
same,Minimum Fungicidal Concentration,[1]; C. albicans MY 1208,2 µg/mL
same,ED90 for eliminating P. carinii cysts,[2],approximately 0.6 mg/kg
